Like-named read-outs stand apart in the source and are kept apart here.
Tested on: M. mycetomatis genome strain MM55
Assay: CLSI M38-A2 based in vitro susceptibility screening (XTT or resazurin), growth at fixed concentration
Assay type: cell-based, Madurella mycetomatis
Settings: Madurella mycetomatis; for Percent fungal survival at 100 µM: read-out: Percentage survival at 100um, 100 uM A (second replicate column)
[1] = 25 uM, mean of replicates, read-out: Percentage survival at 25um, 25 uM mean
[2] = 25 uM, replicate A, read-out: Percentage survival at 25um, 25 um A
[3] = 25 uM, replicate B, read-out: Percentage survival at 25um, 25 uM B
[4] = 25 uM, replicate C, read-out: Percentage survival at 25um, 25 uM C
[5] = mean of replicates, read-out: Percentage survival at 100um, 100 uM mean
[6] = replicate 1, read-out: Percentage survival at 100um, 100 uM A
[7] = replicate 2, read-out: Percentage survival at 100um, 100 uM A
[8] = replicate 3, read-out: Percentage survival at 100um, 100 uM A
[9] = 25 uM, mean of three, M. mycetomatis MM55, read-out: Percentage survival at 25um, 25 uM mean
[10] = 25 uM, replicate A, M. mycetomatis MM55, read-out: Percentage survival at 25um, 25 um A
[11] = 25 uM, replicate B, M. mycetomatis MM55, read-out: Percentage survival at 25um, 25 uM B
[12] = 25 uM, replicate C, M. mycetomatis MM55, read-out: Percentage survival at 25um, 25 uM C
[13] = mean of three, M. mycetomatis MM55, read-out: Percentage survival at 100um, 100 uM mean
[14] = replicate 1, M. mycetomatis MM55, read-out: Percentage survival at 100um, 100 uM A (first replicate column)
[15] = replicate 2, M. mycetomatis MM55
[16] = replicate 3, M. mycetomatis MM55, read-out: Percentage survival at 100um, 100 uM A (third replicate column)

| Structure (SMILES) | activity at 25 µM [1] [%] | activity at 25 µM [2] [%] | activity at 25 µM [3] [%] | activity at 25 µM [4] [%] | activity at 100 µM [5] [%] | activity at 100 µM [6] [%] | activity at 100 µM [7] [%] | activity at 100 µM [8] [%] | other results |
| --- | --- | --- | --- | --- | --- | --- | --- | --- | --- |
| CN(C)[C@@H]1C(=O)C(C(N)=O)=C(O)[C@@]2(O)C(=O)C3=C(O)c4c(O)c(NC(=O)CN5CCCC5)cc(F)c4C[C@H]3C[C@@H]12 [MMV1578574] | 74.6 | 58 | 94 | 72 | 93 | 92.7 | 96.8 | 89.4 |  |
| CC(=O)O[C@H]1C[C@@]2(C)[C@@H](C[C@@H](O)[C@H]3[C@@]4(C)CC[C@@H](O)[C@@H](C)[C@@H]4CC[C@@]32C)/C1=C(\CCC=C(C)C)C(=O)O [MMV1578575] |  |  |  |  |  |  |  |  | activity at 25 µM [9]: 83.8%; activity at 25 µM [10]: 96.4%; activity at 25 µM [11]: 83.3%; activity at 25 µM [12]: 71.6%; activity at 100 µM [13]: 84.3%; activity at 100 µM [14]: 78.5%; Percent fungal survival at 100 µM [15]: 89.6%; activity at 100 µM [16]: 84.8% |
| O=C(Cc1ccccc1F)Nc1nc2ccccc2[nH]1 [MMV1578576] | 70.6 | 73.4 | 74.5 | 63.8 | 78.7 | 102 | 65.1 | 69.2 |  |
| O=C(NC12CC3CC(CC(C3)C1)C2)c1cc2ccccc2[nH]1 [MMV1578577] |  | 79.8 |  |  | 65.6 | 59.6 | 65.1 | 72.1 | activity at 25 µM (read-out: Percentage survival at 25um, 25 uM B): 67.1%; activity at 25 µM (read-out: Percentage survival at 25um, 25 uM C): 75.7%; activity at 25 µM (read-out: Percentage survival at 25um, 25 uM mean): 74.2% |
| O=C(Nc1nnc(-c2ccccc2)o1)c1ccc(F)cc1 [MMV1578578] |  |  |  |  |  |  |  |  | activity at 25 µM [9]: 24.9%; activity at 25 µM [10]: 69.5%; activity at 25 µM [11]: 1.3%; activity at 25 µM [12]: 3.74%; activity at 100 µM [13]: 0.7%; activity at 100 µM [14]: -1.02%; Percent fungal survival at 100 µM [15]: 1.69%; activity at 100 µM [16]: 1.43% |
| COc1ccc(C)cc1NC(=O)c1ccc(S(=O)(=O)N2CCCCC2)cc1 [MMV1578579] |  |  |  |  |  |  |  |  | activity at 25 µM [9]: 72.2%; activity at 25 µM [10]: 96.4%; activity at 25 µM [11]: 63%; activity at 25 µM [12]: 57.3%; activity at 100 µM [13]: 71.4%; activity at 100 µM [14]: 69.7%; Percent fungal survival at 100 µM [15]: 77.1%; activity at 100 µM [16]: 67.5% |
| CCCCOC(=O)Nc1cc2nc(C3CCCCC3)[nH]c2cc1N(CC)CC [MMV1578842] | 88.1 | 97.2 | 93.7 | 73.4 | 93.8 | 93.6 | 90.8 | 96.9 |  |
| O=c1cc(NCCCN[C@@H]2CCOc3c(Br)cc(Br)cc32)[nH]c2ccsc12 [MMV1578884] | 96.9 | 100 | 95.5 | 94.6 | 88.3 | 93 | 86.8 | 85.3 |  |
| O=c1nc(N2CCN(CC3CCCCC3)CC2)sc2c([N+](=O)[O-])cc(C(F)(F)F)cc12 [MMV1578885] |  | 84.1 | 98 | 89.5 |  |  |  |  | activity at 25 µM (25 uM, mean of three replicates, read-out: Percentage survival at 25um, 25 uM mean): 90.5%; activity at 100 µM (mean of three replicates, read-out: Percentage survival at 100um, 100 uM mean): 82.7%; activity at 100 µM (replicate 1, read-out: Percentage survival at 100um, 100 uM A (first replicate column)): 87.8%; Percent fungal survival at 100 µM (replicate 2): 75.6%; activity at 100 µM (replicate 3, read-out: Percentage survival at 100um, 100 uM A (third replicate column)): 84.8% |
| c1ccc(Cn2c(-c3ccccn3)nc3ccccc32)cc1 [MMV1578886] | 60.6 | 64.1 | 69.2 | 48.7 | 7.34 | 12 | 5.19 | 4.84 |  |
| Fc1ccc2c(/C=C/c3cccnc3)c[nH]c2c1 [MMV1578889] |  | 86.3 | 56.6 | 87.7 |  |  |  |  | activity at 25 µM (25 uM, mean, read-out: Percentage survival at 25um, 25 uM mean): 76.9%; activity at 100 µM (mean, read-out: Percentage survival at 100um, 100 uM mean): 58.2%; activity at 100 µM (replicate (first column), read-out: Percentage survival at 100um, 100 uM A): 83.4%; activity at 100 µM (replicate (second column), read-out: Percentage survival at 100um, 100 uM A): 19.8%; activity at 100 µM (replicate (third column), read-out: Percentage survival at 100um, 100 uM A): 71.5% |

— paper PMC8815882, “Screening the pandemic response box identified benzimidazole carbamates, Olorofim and ravuconazole as promising drug candidates for the treatment of eumycetoma” (PLoS Neglected Tropical Diseases, 2022)
